Like-named read-outs stand apart in the source and are kept apart here.
System: Clostridium perfringens strain 56
Format: in vivo, Male Ross 308 broilers
Conditions: for Mean score (NE): 0-6 score

With `CC1(C)S[C@@H]2[C@H](NC(=O)[C@H](N)c3ccc(O)cc3)C(=O)N2[C@H]1C(=O)O` [Amoxicillin] the “% NE (birds positive to macroscopic necrotic enteritis lesions)” value (“% NE” for short) (Day 25, lesion score 2, infected day 19-22) was 44%, the “% NE” value (Day 25 and 26 combined) was 29% and the “Mean score (NE)” value (Day 25 and 26 combined) was 1.315. For the same molecule, the “Mean score (NE)” value (Day 26) was 1.07 and the “% NE” value (Day 26, lesion score 2, infected day 19-22) was 14%.

Reference: patent US12364719B2, “Bacillus subtilis strains improving animal performance parameters” (priority 2017, dated 2025)
